Reference: US20180153840A1, “THE COMPOSITIONS OF GLYCEROL AND /OR NON-TOXIC AMINO ACIDS FOR INHIBITING AND DESTROYING BIOFILM, INCLUDING RELATED METHODS” (priority 2015, published 2018)
“Also recorded” adds a separate entry of the source.

Assays:
[1] = system: bacterial and fungal biofilms; experiment: In vitro testing on bacterial and fungal biofilms; type: cell-based; conditions: for effect on bacterial and fungal biofilm (in words): in vitro; for neutral, effect on bacterial or fungal biofilms: both assays (sustained inhibition and disruption)
Protocol: (§1) For fungal biofilm assays, all solutions were prepared in RPMI 1640 medium. All bacterial biofilm solutions were prepared in Trypic Soy Broth (TSB), supplemented with 1% glucose (henceforth referred to as TSB-G). All subsequent procedures were performed in a manner that maintained sterility. A solution of each amino acid to be tested was prepared in weight to volume concentrations ranging from 0.1-5.0%. Amino acids were also tested in combinations. Compound solutions were homogenized with gentle agitation in the dark (4° C., 24 hours) before use.
(§2) All biofilm assays were performed using 384-well non-tissue culture treated polystyrene plates. The fungal species tested are as follows: Candida albicans, Candida guilliermondii Candida parapsilosis, Candida glabrata, Candida tropicalis and Candida dubliniensis. The bacterial species tested are as follows: Staphylococcus aureus (standard wild type and methicillin-resistant strain USA300), Escherichia coli, Pseudomonas aeruginosa and Staphylococcus epidermidis.
(§3) Fungal strains were streaked on Yeast Peptone Dextrose (YPD) agar plates and incubated at 30° C. for 48 hours. A single colony from each strain to be tested was inoculated into YPD broth and grown for 12 hours, at 30° C., shaking at 225 rpm. For the fungal biofilm inhibition assay, 1 μl of saturated overnight cell culture was added to either 80 μL of RPMI-1640 or RPMI-1640 supplemented with the amino acid compound solution to be tested, in a 384-well plate. The cells were allowed to adhere to the plate for 90 minutes at 37° C. with shaking (350 rpm). Loosely bound cells were washed once with phosphate buffered saline (PBS) and 80 ul of RPMI-1640, or RPMI-1640 supplemented with the amino acid compound solution was added to the plate. The plate was further incubated for 24 hours at 37° C. with shaking (350 rpm). Media was carefully aspirated and the biofilm was measured for fungal cell concentration by optical density at 600 nm. Twelve replicates were performed for each tested condition and the reported values were normalized to the control (RPMI-1640 media only).
(§4) For the fungal biofilm disruption assays, 80 μL of RPMI-1640 was added to the plate, along with 1 μL of overnight cell culture. The cells were allowed to adhere to the plate for 90 minutes at 37° C. with shaking (350 rpm). Loosely bound cells were washed once with PBS and 80 μL of RPMI-1640 was added to the plate. The plate was further incubated for 24 hours at 37° C. with shaking (350 rpm). Media was carefully aspirated from the mature biofilm and 80 μL of RPMI-1640, or RPMI-1640 supplemented with the amino acid compound solution to be tested, was gently added to the plate. The plate was further incubated for 24 hours at 37° C. with shaking (350 rpm). Media was carefully aspirated and the biofilm was measured for fungal cell concentration by optical density at 600 nm. Twelve replicates were performed for each tested condition and the reported values are normalized to the control (RPMI-1640 media only).
(§5) Bacterial strains were streaked on Blood Agar plates (5% sheep blood in Tryptic Soy Broth) and incubated at 37° C. for 24 hours. A single colony from each strain to be tested was inoculated in a TSB broth and grown for 12 hours, at 37° C. with shaking (225 rpm).
(§6) For the bacterial biofilm inhibition assays, 1 μL of saturated overnight cell culture was added to either 80 μL of TSB-G, or TSB-G supplemented with the amino acid compound solution to be tested, in a 384-well plate. The cells were allowed to adhere to the plate for 60 minutes at 37° C. without shaking. The media was carefully aspirated and 80 μL of TSB-G, or TSB-G supplemented with the amino acid compound solution was added to the plate. The plate was further incubated for 24 hours at 37° C. without shaking. Media was carefully aspirated and the biofilm was measured for bacterial cell concentration by optical density at 600 nm.

S. aureus biofilm [2] = experiment: Bacterial biofilm disruption assay; type: cell-based; conditions: Staphylococcus aureus; for activation at 1 %: read-out: Promote B Biofilm; for inhibition at 1 %: read-out: Reduce B Biofilm
Protocol: as §1, §2, §5
(§7) For the bacterial biofilm disruption assays, 80 μL of TSB-G was added to the plate, along with 1 μL of overnight cell culture. The cells were allowed to adhere to the plate for 60 minutes at 37° C. without shaking. The media was carefully aspirated and 80 μL of TSB-G was added to the plate. The plate was further incubated for 24 hours at 37° C. without shaking. Media was carefully aspirated from the mature biofilm and 80 μL of TSB-G, or TSB-G supplemented with the amino acid to be tested, was gently added to the plate. The plate was further incubated for 24 hours at 37° C. without shaking. Media was aspirated and the biofilm was measured for bacterial cell concentration by optical density at 600 nm. Twelve replicates were performed for each tested condition and the reported values were normalized to the control (TSB-G media only).

S. aureus biofilm [3] = experiment: Bacterial biofilm inhibition assay; type: cell-based, Staphylococcus aureus; conditions: for activation at 1 %: Staphylococcus aureus, read-out: Promote B Biofilm
Protocol: as §1, §2, §5
as §6, with “nm. Eight or twelve replicates were performed for each tested condition and the reported values were normalized to the control (TSB-G media only).” for “nm.”

bacterial biofilms = experiment: Bacterial biofilm assays (sustained inhibition and/or disruption); type: cell-based, Staphylococcus aureus; conditions: for support (improve) bacterial biofilm growth: based on the two assays (sustained inhibition and/or disruption); for anti-biofilm properties against bacterial biofilms: individually, about 0.1 to about 5.0% weight to volume (cystathionine 0.2%), at least one of the two assays
Protocol: as §1, §2, §5
as §6, with “nm. Eight or twelve replicates were performed for each tested condition and the reported values were normalized to the control (TSB-G media only).” for “nm.”
as §7

fungal biofilms = experiment: Fungal biofilm assays (sustained inhibition and/or disruption); type: cell-based, Candida albicans; conditions: administered individually; at least one of the two assays (sustained inhibition and/or disruption)
Protocol: as §1, §2, §3, §4

[4] = disruption assay, S. aureus, 1% amino acid, p≤0.001
[5] = sustained inhibition assay, S. aureus, 1% amino acid, p≤0.001

Row | Structure (SMILES) | effect on bacterial and fungal biofilm (in words) [1] | support (improve) bacterial biofilm growth (bacterial biofilms) | activation at 1 % (S. aureus biofilm [2]; [4]) | activation at 1 % (S. aureus biofilm [3]; [5]) | further results
1 | NCCCC[C@H](N)C(=O)O [Lysine, L-lysine] | promote bacterial and fungal biofilm | support (improve) bacterial biofilm growth |  |  | activation at 1 % (S. aureus biofilm [2]): 10 to 30%; activation at 1 % (S. aureus biofilm [3]): 10 to 30%
2 | NCCOP(=O)(O)O [Phosphoethanolamine, O-phosphoethanolamine] |  |  |  |  | inhibition at 1 % (S. aureus biofilm [2]; [4]): 10 to 30%; Reduce B Biofilm (S. aureus biofilm [3]; [5]): • (a single dot (●) signifies an effect in a range of about 10 to about 30% change); anti-biofilm properties against bacterial biofilms (bacterial biofilms): anti-biofilm properties against bacterial biofilms
3 | NCCS(=O)(=O)O [Taurine, L-taurine] |  | support (improve) bacterial biofilm growth | 10 to 30% | 10 to 30% | 
4 | N[C@@H](Cc1ccc(O)cc1)C(=O)O [Tyrosine, L-tyrosine] | neutral effect on biofilm |  |  |  | neutral, effect on bacterial or fungal biofilms [1]: no effect on bacterial or fungal biofilms
5 | NC(=O)CC[C@H](N)C(=O)O [Glutamine, L-glutamine] |  |  |  |  | neutral, effect on bacterial or fungal biofilms [1]: no effect on bacterial or fungal biofilms
6 | NCCC[C@H](N)C(=O)O [Ornithine, L-ornithine] |  | support (improve) bacterial biofilm growth | 10 to 30% |  | 
7 | NC(=O)C[C@H](N)C(=O)O [Asparagine, L-asparagine] |  | support (improve) bacterial biofilm growth |  | 10 to 30% | 
8 | N[C@@H](CO)C(=O)O [Serine, L-serine] | promote bacterial and fungal biofilm | support (improve) bacterial biofilm growth | 10 to 30% | 10 to 30% | 
9 | CSCC[C@H](N)C(=O)O [Methionine, L-methionine] | promote bacterial and fungal biofilm | support (improve) bacterial biofilm growth |  | 10 to 30% | 
10 | NCCC(=O)O [Beta-Alanine, Beta-alanine] |  |  |  |  | Reduce B Biofilm (S. aureus biofilm [3]; [5]): • (a single dot (●) signifies an effect in a range of about 10 to about 30% change); anti-biofilm properties against bacterial biofilms (bacterial biofilms): anti-biofilm properties against bacterial biofilms
11 | CCC(N)C(=O)O (centres unmarked) [2 Aminobutyric Acid, 2-aminobutyric acid] |  |  |  |  | neutral, effect on bacterial or fungal biofilms [1]: no effect on bacterial or fungal biofilms
12 | N[C@@H](Cc1c[nH]c2ccccc12)C(=O)O [Tryptophan, L-tryptophan] | promote bacterial and fungal biofilm | support (improve) bacterial biofilm growth |  |  | activation at 1 % (S. aureus biofilm [3]): 10 to 30%
13 | N[C@@H](CCS)C(=O)O [Homocysteine, L-homocysteine] |  |  |  |  | anti-biofilm properties against bacterial biofilms (bacterial biofilms): anti-biofilm properties against bacterial biofilms; anti-biofilm properties against fungal biofilms (fungal biofilms): anti-biofilm properties against fungal biofilms
14 | N[C@@H](Cc1c[nH]cn1)C(=O)O [Histidine, L-histidine] |  |  |  |  | neutral, effect on bacterial or fungal biofilms [1]: no effect on bacterial or fungal biofilms
15 | CC[C@H](C)[C@H](N)C(=O)O [Isoleucine, L-isoleucine] | promote bacterial and fungal biofilm | support (improve) bacterial biofilm growth | 10 to 30% |  | 
16 | N=C(N)NCCC[C@H](N)C(=O)O [Arginine, L-arginine] | promote bacterial and fungal biofilm | support (improve) bacterial biofilm growth |  |  | activation at 1 % (S. aureus biofilm [2]): 10 to 30%; activation at 1 % (S. aureus biofilm [3]): 10 to 30%
17 | C[C@@H](O)[C@H](N)C(=O)O [Threonine, L-threonine] | promote bacterial and fungal biofilm | support (improve) bacterial biofilm growth |  | 10 to 30% | 
18 | OCC(O)CO [glycerol] | no measurable effect; also recorded: not found to have antibiofilm effect |  |  |  | 
19 | NC(CCCC(=O)O)C(=O)O (centres unmarked) [2 Aminoadipic Acid, 2-aminoadipic acid] |  |  |  |  | inhibition at 1 % (S. aureus biofilm [2]; [4]): 10 to 30%; Reduce B Biofilm (S. aureus biofilm [3]; [5]): • (a single dot (●) signifies an effect in a range of about 10 to about 30% change); anti-biofilm properties against bacterial biofilms (bacterial biofilms): anti-biofilm properties against bacterial biofilms
20 | NCC(=O)O [Glycine, L-glycine] | promote bacterial and fungal biofilm | support (improve) bacterial biofilm growth | 10 to 30% | 10 to 30% | 
21 | N[C@@H](Cc1ccccc1)C(=O)O [Phenylalanine, L-phenylalanine] | promote bacterial and fungal biofilm | support (improve) bacterial biofilm growth | 10 to 30% | 10 to 30% | 
22 | O=C(O)[C@@H]1CCCN1 [Proline, L-proline] | promote bacterial and fungal biofilm | support (improve) bacterial biofilm growth | 10 to 30% |  | 
23 | CC(C)C[C@H](N)C(=O)O [Leucine, L-leucine] | promote bacterial and fungal biofilm | support (improve) bacterial biofilm growth | 10 to 30% | 10 to 30% | 
24 | NC(=O)NCCC[C@H](N)C(=O)O [Citrulline, L-citrulline] |  | support (improve) bacterial biofilm growth |  |  | activation at 1 % (S. aureus biofilm [2]): 10 to 30%; activation at 1 % (S. aureus biofilm [3]): 10 to 30%
25 | C[C@H](N)C(=O)O [Alanine, L-alanine] | promote bacterial and fungal biofilm | support (improve) bacterial biofilm growth | 10 to 30% |  | 
